22 compounds from ChEMBL document CHEMBL3792342, “Synthesis and biological evaluation of 2-arylimino-3-pyridin-thiazolineone derivatives as antibacterial agents” (Bioorg Med Chem Lett, 2016) can be followed below.

For data set [1], the system named is Staphylococcus epidermidis. Description: Antibacterial activity against Staphylococcus epidermidis ATCC 35984 by broth micro-dilution method. It counts as functional. Conditions: RP62A. On the technique in general: Dilution methods test growth across graded concentrations, often in twofold steps.
A further data set concerns Staphylococcus aureus. Nature of the data set: Antibacterial activity against methicillin-resistant Staphylococcus aureus 8282 by broth micro-dilution method. It counts as functional.
The test system of data set [2] is Staphylococcus epidermidis. Description: Bactericidal activity against Staphylococcus epidermidis ATCC 35984. It counts as functional. Conditions: RP62A.
A further data set deals with Escherichia coli. Description: Antibacterial activity against Escherichia coli ATCC 25922 by broth micro-dilution method. It counts as functional.
A short description of data set [3]: Cytotoxicity against African green monkey Vero cells. The format is cell-based. The settings on record: chlorocebus sabaeus.
A short description of data set [4]: Hemolytic activity in human erythrocytes at 200 uM. It counts as ADME, cell-based. Conditions: erythrocyte.

In brackets after ≈: the same amount, converted by molar mass.

The term MIC denotes the least concentration at which growth counts as inhibited. In general, MBC refers to the smallest concentration meeting the test's criterion for killing. As a reminder, the CC50 is the concentration at which the toxic effect on the cells reaches its halfway point. In the case of `CCc1ccccc1/N=C1\S/C(=C\c2ccc(OCC(=O)O)c(OC)c2)C(=O)N1c1ccccc1CC`, the MIC in data set [1] is 25 µM (≈ 12.9 µg/mL); with Staphylococcus aureus it was 25 µM (≈ 12.9 µg/mL); with Escherichia coli, more than 200 µM. The same compound registered an MBC in data set [2] of 100 µM (≈ 51.7 µg/mL). Besides, the midpoint of cytotoxicity in data set [3], the CC50, lay at 50 µM. In addition, the Activity result in data set [4] is listed as “Non-toxic”.
For `O=C(O)c1cccc(-c2ccc(/C=C3\S/C(=N\c4ccc(F)cc4)N(c4ccc(F)cc4)C3=O)s2)c1`, the MIC in data set [1] was 6.25 µM (≈ 3.24 µg/mL); against Staphylococcus aureus, 6.25 µM (≈ 3.24 µg/mL); with Escherichia coli, more than 200 µM. The compound further came in with a minimal bactericidal concentration (MBC) in data set [2] of 100 µM (≈ 51.9 µg/mL). The compound also yielded a CC50 in data set [3] of more than 200 µM. The Activity entry in data set [4] is reported as “Non-toxic”.
For `O=C(O)c1cccc(-c2ccc(/C=C3\S/C(=N\c4ccc(Cl)cc4)N(c4ccc(Cl)cc4)C3=O)s2)c1`, the figures for the MIC (in data set [1]; in the data set with Staphylococcus aureus; with Escherichia coli) were 12.5 µM (≈ 6.89 µg/mL), 25 µM (≈ 13.8 µg/mL) and more than 200 µM, respectively. Moreover, the MBC in data set [2] was more than 200 µM. The same compound yielded a 50% cytotoxic concentration (CC50) in data set [3] of more than 200 µM. Moreover, the Activity entry in data set [4] is “Non-toxic”.
In the case of `O=C(O)c1cccc(-c2ccc(/C=C3\S/C(=N\c4ccc(Cl)cc4)N(c4ncccc4F)C3=O)o2)c1`, the values for the MIC (in data set [1]; in the data set with Staphylococcus aureus; with Escherichia coli) were 12.5 µM (≈ 6.5 µg/mL), 12.5 µM (≈ 6.5 µg/mL) and more than 200 µM, respectively. Besides, in data set [2], the minimum bactericidal concentration (MBC) is more than 200 µM. This compound also returned a cytotoxic concentration (CC50) in data set [3] of more than 200 µM. Besides, the Activity result in data set [4] is listed as “Non-toxic”.
In the case of `O=C(O)c1cccc(-c2ccc(/C=C3\S/C(=N\c4ccc(Cl)cc4)N(c4ccccn4)C3=O)o2)c1`, the minimal inhibitory concentration (MIC) in data set [1] is 6.25 µM (≈ 3.14 µg/mL); against Staphylococcus aureus, 6.25 µM (≈ 3.14 µg/mL); against Escherichia coli it was more than 200 µM. Further, the minimum bactericidal concentration (MBC) in data set [2] was determined as 50 µM (≈ 25.1 µg/mL). In data set [3], this compound yielded a 50% cytotoxic concentration (CC50) of more than 200 µM. Besides, in data set [4], the Activity entry is “Non-toxic”.
For the compound `O=C(O)c1cccc(-c2ccc(/C=C3\S/C(=N\c4ccc(F)cc4)N(c4ccccn4)C3=O)o2)c1`, the minimal inhibitory concentration (MIC) in data set [1] is 12.5 µM (≈ 6.07 µg/mL); against Staphylococcus aureus, 12.5 µM (≈ 6.07 µg/mL); against Escherichia coli, more than 200 µM. The minimal bactericidal concentration (MBC) in data set [2] was more than 200 µM. This compound displayed a CC50 in data set [3] of more than 200 µM. The Activity result in data set [4] is “Non-toxic”.
On to `O=C(O)c1cccc(-c2ccc(/C=C3\S/C(=N\c4ccccc4)N(c4ccc(Cl)cc4)C3=O)o2)c1`, for which the MIC in data set [1] was 6.25 µM (≈ 3.13 µg/mL); in the data set on Staphylococcus aureus, 6.25 µM (≈ 3.13 µg/mL); against Escherichia coli, more than 200 µM. Also, in data set [2], the minimal bactericidal concentration (MBC) stood at 50 µM (≈ 25 µg/mL). This compound also came in with a CC50 in data set [3] of more than 200 µM. In data set [4], the Activity result was “Non-toxic”.
With `O=C(O)c1cccc(-c2ccc(/C=C3\S/C(=N\c4ccccc4)N(c4cccc(F)n4)C3=O)o2)c1`, the results for the MIC (in data set [1]; against Staphylococcus aureus; with Escherichia coli) were 6.25 µM (≈ 3.03 µg/mL), 6.25 µM (≈ 3.03 µg/mL) and more than 200 µM, respectively. Also, the minimal bactericidal concentration (MBC) in data set [2] is 100 µM (≈ 48.5 µg/mL). In data set [3], this compound registered a CC50 of more than 200 µM. In addition, in data set [4], the Activity entry is listed as “Non-toxic”.
As to `O=C(O)c1cccc(-c2ccc(/C=C3\S/C(=N\c4ccccc4)N(c4ccc(F)cn4)C3=O)o2)c1`, the MIC was 12.5 µM (≈ 6.07 µg/mL) in data set [1], 12.5 µM (≈ 6.07 µg/mL) against Staphylococcus aureus and more than 200 µM with Escherichia coli. The compound also had an MBC in data set [2] of more than 200 µM. Moreover, the 50% cytotoxic concentration (CC50) in data set [3] was more than 200 µM. Moreover, the Activity result in data set [4] is on record as “Non-toxic”.
Regarding `O=C(O)c1cccc(-c2ccc(/C=C3\S/C(=N\c4ccccc4)N(c4ccc(F)cc4)C3=O)s2)c1`, the results for the minimal inhibitory concentration (MIC) (in data set [1]; against Staphylococcus aureus; in the data set with Escherichia coli) were 6.25 µM (≈ 3.13 µg/mL), 12.5 µM (≈ 6.26 µg/mL) and more than 200 µM, respectively. The same compound yielded a minimal bactericidal concentration (MBC) in data set [2] of 25 µM (≈ 12.5 µg/mL). This compound also showed a half-maximal cytotoxic concentration (CC50) in data set [3] of more than 200 µM. For the same compound, the Activity entry in data set [4] was “Non-toxic”.
Turning to `O=C(O)c1cccc(-c2ccc(/C=C3\S/C(=N\c4ccccc4)N(c4ccc(F)cn4)C3=O)s2)c1`, the figures for the MIC (in data set [1]; in the data set with Staphylococcus aureus; in the data set with Escherichia coli) were 3.13 µM (≈ 1.57 µg/mL), 3.13 µM (≈ 1.57 µg/mL) and more than 200 µM, respectively. In data set [2], this compound returned a minimal bactericidal concentration (MBC) of 50 µM (≈ 25.1 µg/mL). Moreover, the CC50 in data set [3] is more than 200 µM. Moreover, the Activity result in data set [4] is reported as “Non-toxic”.
`O=C(O)c1cccc(-c2ccc(/C=C3\S/C(=N\c4ccc(Cl)cc4)N(c4ccccc4)C3=O)o2)c1`: the figures for the MIC (in data set [1]; against Staphylococcus aureus; with Escherichia coli) were 6.25 µM (≈ 3.13 µg/mL), 6.25 µM (≈ 3.13 µg/mL) and more than 200 µM, respectively. Moreover, in data set [2], the MBC was determined as 100 µM (≈ 50.1 µg/mL). The compound further displayed a 50% cytotoxic concentration (CC50) in data set [3] of more than 200 µM. Besides, in data set [4], the Activity entry was “Non-toxic”.
`O=C(O)c1cccc(-c2ccc(/C=C3\S/C(=N\c4ccccc4)N(c4cccnc4Cl)C3=O)o2)c1`: the figures for the minimal inhibitory concentration (MIC) (in data set [1]; in the data set on Staphylococcus aureus; in the data set with Escherichia coli) were 3.13 µM (≈ 1.57 µg/mL), 6.25 µM (≈ 3.14 µg/mL) and more than 200 µM, respectively. In data set [2], this compound had a minimal bactericidal concentration (MBC) of 50 µM (≈ 25.1 µg/mL). Moreover, in data set [3], the CC50 is more than 200 µM. Besides, in data set [4], the Activity result is listed as “Non-toxic”.
For `O=C(O)c1cccc(-c2ccc(/C=C3\S/C(=N\c4ccc(F)cc4)N(c4ccc(F)cc4)C3=O)o2)c1`, the MIC in data set [1] is 100 µM (≈ 50.2 µg/mL); against Staphylococcus aureus, 100 µM (≈ 50.2 µg/mL); against Escherichia coli, more than 200 µM. The MBC in data set [2] was more than 200 µM. The same compound registered a 50% cytotoxic concentration (CC50) in data set [3] of more than 200 µM. Besides, in data set [4], the Activity result is “Non-toxic”.
As for `O=C(O)c1cccc(-c2ccc(/C=C3\S/C(=N\c4ccccc4)N(c4ncccc4F)C3=O)o2)c1`, the MIC in data set [1] is 12.5 µM (≈ 6.07 µg/mL); with Staphylococcus aureus it was 12.5 µM (≈ 6.07 µg/mL); against Escherichia coli, more than 200 µM. Besides, the MBC in data set [2] was more than 200 µM. Besides, the CC50 in data set [3] was more than 200 µM. The Activity result in data set [4] is given as “Non-toxic”.
On to `O=C(O)c1cccc(-c2ccc(/C=C3\S/C(=N\c4ccc(Cl)cc4)N(c4ccc(Cl)cc4)C3=O)o2)c1`, for which the results for the MIC (in data set [1]; with Staphylococcus aureus; in the data set with Escherichia coli) were 25 µM (≈ 13.4 µg/mL), 25 µM (≈ 13.4 µg/mL) and more than 200 µM, respectively. For the same compound, the MBC in data set [2] is more than 200 µM. This compound also displayed a half-maximal cytotoxic concentration (CC50) in data set [3] of more than 200 µM. Besides, in data set [4], the Activity result is listed as “Non-toxic”.
For the compound `O=C(O)c1cccc(-c2ccc(/C=C3\S/C(=N\c4ccccc4)N(c4cccnc4[N+](=O)[O-])C3=O)s2)c1`, the values for the minimum inhibitory concentration (MIC) (in data set [1]; with Staphylococcus aureus; against Escherichia coli) were 1.56 µM (≈ 0.825 µg/mL), 3.13 µM (≈ 1.65 µg/mL) and more than 200 µM, respectively. Further, the minimal bactericidal concentration (MBC) in data set [2] was found to be 12.6 µM (≈ 6.66 µg/mL). For the same compound, in data set [3], the 50% cytotoxic concentration (CC50) was more than 200 µM. Besides, in data set [4], the Activity result is on record as “Non-toxic”.
For the compound `O=C(O)c1cccc(-c2ccc(/C=C3\S/C(=N\c4ccccc4)N(c4ccc(Cl)cc4)C3=O)s2)c1`, the minimal inhibitory concentration (MIC) in data set [1] is 1.56 µM (≈ 0.807 µg/mL); against Staphylococcus aureus, 3.13 µM (≈ 1.62 µg/mL); in the data set with Escherichia coli it was more than 200 µM. The compound also gave an MBC in data set [2] of 25 µM (≈ 12.9 µg/mL). Also, the 50% cytotoxic concentration (CC50) in data set [3] was more than 200 µM. Besides, the Activity entry in data set [4] is on record as “Non-toxic”.
Regarding `O=C(O)c1cccc(-c2ccc(/C=C3\S/C(=N\c4ccccc4)N(c4cccnc4Cl)C3=O)s2)c1`, the MIC in data set [1] was 1.56 µM (≈ 0.808 µg/mL); in the data set with Staphylococcus aureus, 3.13 µM (≈ 1.62 µg/mL); in the data set with Escherichia coli, more than 200 µM. In data set [2], this compound returned an MBC of 6.3 µM (≈ 3.26 µg/mL). Besides, in data set [3], the CC50 was more than 200 µM. In data set [4], the Activity entry is listed as “Non-toxic”.
Turning to `Cc1ncccc1N1C(=O)/C(=C/c2ccc(-c3cccc(C(=O)O)c3)s2)S/C1=N\c1ccccc1`, the results for the MIC (in data set [1]; against Staphylococcus aureus; in the data set on Escherichia coli) were 12.5 µM (≈ 6.22 µg/mL), 12.5 µM (≈ 6.22 µg/mL) and more than 200 µM, respectively. In data set [2], this compound displayed an MBC of 100 µM (≈ 49.8 µg/mL). For the same compound, in data set [3], the CC50 was more than 200 µM. Also, the Activity result in data set [4] is recorded as “Non-toxic”.
`O=C(O)c1cccc(-c2ccc(/C=C3\S/C(=N\c4ccccc4)N(c4ccc(F)cc4)C3=O)o2)c1`: the minimal inhibitory concentration (MIC) was 25 µM (≈ 12.1 µg/mL) in data set [1], 25 µM (≈ 12.1 µg/mL) against Staphylococcus aureus and more than 200 µM against Escherichia coli. In addition, the MBC in data set [2] was 50 µM (≈ 24.2 µg/mL). In data set [3], this compound yielded a CC50 of more than 200 µM. In addition, in data set [4], the Activity entry is given as “Non-toxic”.
Turning to `COc1cccc(OC)c1C(=O)N[C@@H]1C(=O)N2[C@@H]1SC(C)(C)[C@@H]2C(=O)O` [METHICILLIN], the figures for the minimal inhibitory concentration (MIC) (in data set [1]; in the data set with Staphylococcus aureus; with Escherichia coli) were 3.13 µM (≈ 1.19 µg/mL), 100 µM (≈ 38 µg/mL) and more than 200 µM, respectively. Also, the MBC in data set [2] is more than 200 µM. The compound also showed a 50% cytotoxic concentration (CC50) in data set [3] of more than 200 µM. Moreover, the Activity result in data set [4] is recorded as “Non-toxic”.
